Measurements from patent US12116358B2, “Substituted indoles and methods of use thereof” (EPIZYME, INC., priority 2018, dated 2024).
pIC50: −log10 of the molar value.

Target: T1, SETD2(1434-1711) (Homo sapiens, UniProt Q9BYW2)
T1 construct: SETD2 (1434-1711) Assay; catalogue N/A
T1 sequence (Q9BYW2 1434-1711): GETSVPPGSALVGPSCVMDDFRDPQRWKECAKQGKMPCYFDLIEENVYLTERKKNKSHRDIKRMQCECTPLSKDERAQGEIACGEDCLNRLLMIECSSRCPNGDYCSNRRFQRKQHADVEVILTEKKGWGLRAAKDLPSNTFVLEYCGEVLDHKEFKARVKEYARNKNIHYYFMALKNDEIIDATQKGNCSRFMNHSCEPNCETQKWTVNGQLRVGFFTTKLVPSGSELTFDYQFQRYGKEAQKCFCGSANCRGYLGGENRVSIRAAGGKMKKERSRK
Test: SETD2 (1434-1711) assay
Assay type: biochemical
Settings: read-out: SETD2 (1434-1711)

Compound | pIC50
Cc1ccc(F)c2cc(C(=O)N[C@@H]3CCC[C@@H](N4CCN(C(=O)C5CC5)CC4)C3)[nH]c12 [compound 831] | 5.64
COC(=O)CC(NC(=O)c1cc2cccc(C)c2[nH]1)c1ccc(Cl)cc1 (centres unmarked) [compound 764] | < 3.70
Cc1c(C(=O)N[C@H]2CC[C@H](NC(=O)CCN)CC2)[nH]c2c(C)cccc12 [compound 655] | 4.60
Cc1cccc2cc(C(=O)NCCc3ccccc3-c3ccccc3CN)[nH]c12 [compound 635] | 4.78
Cc1cccc2cc(C(=O)N[C@H]3CC[C@H](NC(=O)C(F)(F)F)CC3)[nH]c12 [compound 791] | < 3.70
Cc1cccc2cc(C(=O)NC3CCN(C(=O)CCCN)CC3)[nH]c12 [compound 639] | 4.73
Cc1nc(C(C)NC(=O)c2cc3cccc(C)c3[nH]2)no1 (centres unmarked) [compound 785] | < 3.70
Cc1cccnc1C(NC(=O)c1cc2cccc(CC3CCC3)c2[nH]1)C1CC1 (centres unmarked) [compound 821] | < 3.70
Cc1cccc2cc(C(=O)NCc3ccccc3N(C)C)[nH]c12 [compound 638] | 4.74
CCOC(=O)C(NC(=O)c1cc2cccc(C)c2[nH]1)C(F)(F)F (centres unmarked) [compound 675] | 4.42
Cc1cccc2cc(C(=O)NC(c3ccccn3)C3CC3)[nH]c12 (centres unmarked) [compound 660] | 4.55
COC(=O)C[C@@H](NC(=O)c1cc2cccc(C)c2[nH]1)c1ccccc1 [compound 666] | < 4.48
Cc1cccc2cc(C(=O)NC3C[C@@H]4CC[C@H]3C4)[nH]c12 (some centres unmarked) [compound 654] | 4.60
Cc1ccc(F)c2cc(C(=O)N[C@@H]3CCCC(N4CCC(=O)N(C)CC4)C3)[nH]c12 (some centres unmarked) [compound 832] | 6.22
Cc1cccc2cc(C(=O)N[C@@H]3C[C@H]4CC[C@@H]3CN4C(=O)CCN)[nH]c12 [compound 672] | 4.44
COC(=O)C[C@H](NC(=O)c1cc2cccc(C)c2[nH]1)C(=O)OC [compound 708] | 4.13
Cc1cccc2cc(C(=O)NC(C)c3ccc(-n4cccn4)cc3)[nH]c12 (centres unmarked) [compound 652] | 4.61
Cc1cccc2cc(C(=O)NC3Cc4ccccc4NC3=O)[nH]c12 (centres unmarked) [compound 699] | 4.18

Compound | pIC50
Cc1cccc2cc(C(=O)NCC3CCCO3)[nH]c12 (centres unmarked) [compound 747] | < 3.70
Cc1cccc2cc(C(=O)NC(C)c3ccn(C)n3)[nH]c12 (centres unmarked) [compound 712] | 4.06
Cc1cccc2cc(C(=O)NC(C)CNC(=O)OC(C)(C)C)[nH]c12 (centres unmarked) [compound 766] | < 3.70
Cc1cc(C)c2[nH]c(C(=O)N[C@H]3CC[C@H](NC(=O)CCN)CC3)cc2c1 [compound 738] | 3.75
COC(=O)CC(NC(=O)c1cc2cccc(C)c2[nH]1)c1ccc(F)cc1 (centres unmarked) [compound 776] | < 3.70
Cc1cccnc1C(NC(=O)c1cc2cccc(C(C)C)c2[nH]1)C1CC1 (centres unmarked) [compound 802] | < 3.70
CC(=O)N1CCC(NC(=O)c2cc3cccc(C)c3[nH]2)CC1 [compound 670] | 4.45
Cc1cccc2cc(C(=O)NCc3cn4ccnc4cn3)[nH]c12 [compound 710] | 4.08
COC(=O)CC(NC(=O)c1cc2cccc(C)c2[nH]1)c1cccc(F)c1 (centres unmarked) [compound 707] | 4.14
COc1cc(OC)cc(C(O)CNC(=O)c2cc3cccc(C)c3[nH]2)c1 (centres unmarked) [compound 681] | 4.35
Cc1cccc2cc(C(=O)N3CCc4ccccc4C3)[nH]c12 [compound 684] | < 4.30
COC(=O)CC(NC(=O)c1cc2cccc(C)c2[nH]1)c1ccc(C)cc1 (centres unmarked) [compound 783] | < 3.70
Cc1cccc2cc(C(=O)NCCc3ccc(Cl)cc3N3CCOCC3)[nH]c12 [compound 653] | < 4.60
COC(=O)CC(NC(=O)c1cc2cccc(C)c2[nH]1)c1ccsc1 (centres unmarked) [compound 649] | 4.65
COC(=O)C[C@H](NC(=O)c1cc2cccc(C)c2[nH]1)c1cccnc1 [compound 676] | 4.42
Cc1cccc2cc(C(=O)NC3CCC(=O)Nc4ccccc43)[nH]c12 (centres unmarked) [compound 704] | 4.15
Cc1cccc2cc(C(=O)N[C@H]3CC[C@](C)(NC(=O)CCN)CC3)[nH]c12 [compound 629] | 4.84
